Test results: patent publication US20080207455A1, “5,6-Dialkyl-7-Aminoazolopyrimidines, Their Preparation and Their Use for Controlling Harmful Fungi, and Compositions Comprising These Compounds” (BASF AKTINGESELLSCHAFT, priority 2005, published 2008)

Experiments:
Plasmopara viticola = assay: Activity against peronospora of grapevines caused by Plasmopara viticola (protective leaf spray, potted vines); type: in vivo; settings: comparison with the closest prior art, concentration not restated in the table, untreated 100
Description: The mixture was then made up to 100 ml with water. This stock solution was diluted with the solvent/emulsifier/water mixture described to the concentration of active compounds stated below. Use example 1—Activity against peronospora of grapevines caused by Plasmopara viticola Leaves of potted vines were sprayed to runoff point with an aqueous suspension comprising 250 ppm of active compound. The next day, the undersides of the leaves were inoculated with an aqueous sporangia suspension of Plasmopara viticola. The vines were then initially placed in a water vapor-saturated chamber at 24° C. for 48 hours and then in a greenhouse at temperatures between 20 and 30° C. for five days. After this time, the plants were once more placed in a humid chamber for 16 hours to accelerate the eruption of sporangiophores. The extent of the development of the infection on the undersides of the leaves was then determined visually.

melting point [°C] | SMILES | Infection in % (Plasmopara viticola) [%]
130 to 131 | CCCCCCCCCCc1c(CC)nc2cc(C)nn2c1N [Compound I-4] | 3
– | CCCCCCCCCCc1c(C)nc2cc(C)nn2c1N [Compound 28, reference compound] | 40
180 to 181 | CCc1nc2nc(C)nn2c(N)c1CCC(C)CC(C)(C)C (stereo not shown) [Compound I-1, 5-ethyl-2-methyl-6-(3,5,5-trimethylhexyl)-[1,2,4]triazolo[1,5-a]pyrimidin-7-ylamine] | –
